Measured values as given in US7202265B2, “Indolinone combinatorial libraries and related products and methods for the treatment of disease” (Sugen, Inc., priority 1997, dated 2007).

What follows are molecules tested on human MET (assay: MET biochemical kinase assay).
Design: concentration or dose not given beside the values
Source text: (d) MET Biochemical Kinase Assay
A met biochemical kinase assay may be performed for met generally as described above for other kinases by substituting that or the other kinases. In particular, ELISA plates are coated with goat anti-rabbit Fc antibodies, which are used to capture commercially available (from Santa Cruz Biotechnology) rabbit polyclonal antibodies to the cytoplasmic domain of human MET. […] The chimeric receptors, or MET, from these lysates are captured on the antibody coated plates. After washing away extraneous proteins, test compounds are added and an in vitro kinase assay is performed by addition of an appropriate kinase buffer (containing ATP, divalent metal ions, etc.). Incorporation of phosphate into the captured receptors is detected with an anti-phosphotyrosine antibody conjugate with horse radish peroxidase using TMB as a substrate for calorimetric detection.

Row | SMILES | Met Kinase % Inhibition [%]
1 | O=C1Nc2ccc(CCCl)cc2C1=Cc1cc(Cl)cc(Br)c1O [10727/G04] | 94.0
2 | O=C1Nc2ccc(CCCl)cc2C1=Cc1ccccc1Sc1ccc(Cl)cc1 [10727/G05] | 7.1
3 | COc1cccc(C=C2C(=O)Nc3ccc(CCCl)cc32)c1OC [10727/G11] | −0.8
4 | O=C1Nc2ccc(I)cc2C1=Cc1cc(C(F)(F)F)ccc1F [10728/B08] | 77.0
5 | COc1ccc(OC)c(C=C2C(=O)Nc3ccc(S(=O)(=O)Nc4ccc(C(F)(F)F)cc4)cc32)c1 [10728/E02] | 5.4
6 | O=C1Nc2ccc(S(=O)(=O)Nc3ccc(C(F)(F)F)cc3)cc2C1=Cc1c(F)cccc1C(F)(F)F [10728/E09] | 40.0
7 | COc1ccc(OC)c(C=C2C(=O)Nc3ccc(CCCl)cc32)c1 [10728/G02] | 7.1
8 | COc1cccc(OC)c1C=C1C(=O)Nc2ccc(CCCl)cc21 [10728/G03] | 8.8
9 | Cc1ccsc1C=C1C(=O)Nc2ccc(I)cc21 [10729/B05] | 51.0
10 | O=C1Nc2ccc(I)cc2C1=Cc1cccnc1 [10729/B08] | 66.0
11 | CSc1ccc(C=C2C(=O)Nc3ccc(S(=O)(=O)Nc4ccc(C(F)(F)F)cc4)cc32)cc1 [10729/E04] | 9.8
12 | O=C1Nc2ccc(S(=O)(=O)Nc3ccc(C(F)(F)F)cc3)cc2C1=Cc1cccc(Oc2ccccc2)c1 [10729/E06] | −0.7
13 | O=C1Nc2ccc(S(=O)(=O)Nc3ccc(C(F)(F)F)cc3)cc2C1=Cc1ccncc1 [10729/E09] | 85.0
14 | O=C1Nc2ccc(S(=O)(=O)Nc3ccc(C(F)(F)F)cc3)cc2C1=Cc1ccc(N2CCCC2)cc1 [10729/E10] | 7.5
15 | O=C1Nc2ccc(CCCl)cc2C1=Cc1cccc(Oc2ccccc2)c1 [10729/G06] | 26.0
16 | O=C1Nc2c(Br)cc(Br)cc2C1=Cc1coc2ccc(Cl)cc2c1=O [10730/A06] | 61.0
17 | O=C1Nc2c(Br)cc(Br)cc2C1=Cc1cc2ccccc2nc1Cl [10730/A08] | 69.0
18 | Cc1cc(C=C2C(=O)Nc3c(Br)cc(Br)cc32)oc1C [10730/A11] | 91.0
19 | CNS(=O)(=O)c1ccc2c(c1)C(=Cc1cc3ccccc3nc1Cl)C(=O)N2 [10730/D08] | −13.6
20 | CNS(=O)(=O)c1ccc2c(c1)C(=Cc1cc(C)c(C)o1)C(=O)N2 [10730/D11] | 9.7
21 | CC(=O)n1cc(C=C2C(=O)Nc3ccc(S(=O)(=O)Nc4ccc(C(F)(F)F)cc4)cc32)c2ccccc21 [10730/E05] | 49.0
22 | COc1ccc(C=C2C(=O)Nc3ccc(S(=O)(=O)N4CCOCC4)cc32)c(OC)c1OC [10730/F02] | −6.2
23 | COc1cc(OC)c(OC)cc1C=C1C(=O)Nc2ccc(S(=O)(=O)N3CCOCC3)cc21 [10730/F03] | −0.6
24 | COc1cc(C=C2C(=O)Nc3ccc(S(=O)(=O)N4CCOCC4)cc32)cc(OC)c1OC [10730/F04] | 36.0
25 | Cc1ccc2occ(C=C3C(=O)Nc4c(Br)cc(Br)cc43)c(=O)c2c1 [10731/A06] | 53.0
26 | C=C(C)C1CC=C(C=C2C(=O)Nc3ccc(I)cc32)CC1 (centres unmarked) [10731/B04] | 71.0
27 | CC(C)c1ccc2occ(C=C3C(=O)Nc4ccc(I)cc43)c(=O)c2c1 [10731/B05] | 86.0
28 | Cc1c(Br)ccc2c1C(=Cc1coc3ccc([N+](=O)[O-])cc3c1=O)C(=O)N2 [10731/C07] | −11.6
29 | CCn1c2ccccc2c2cc(C=C3C(=O)Nc4ccc(S(=O)(=O)NC)cc43)ccc21 [10731/D02] | 8.7
